In publication PMC5218480 (PLoS ONE, 2017):

Tested on: MV-4-11 cells
Assay: Gene expression microarray analysis (Affymetrix PrimeView) and GSEA
Format: cell-based, human
Set-up: RFU PODN (11730768_x_at) / Fold change /veh PODN (11730768_x_at) / RFU LINC00158 (11744669_a_at) / Fold change /veh LINC00158 (11744669_a_at) / RFU DUSP10 (11751237_a_at) / Fold change /veh DUSP10 (11751237_a_at) / RFU ID3 (11757404_x_at) / Fold change /veh ID3 (11757404_x_at) / RFU PLEKHG5 (11737974_s_at) / Fold change /veh PLEKHG5 (11737974_s_at) / RFU LRRC4B (11730491_at) / Fold change /veh LRRC4B (11730491_at) / RFU GIMAP4 (11747438_a_at) / Fold change /veh GIMAP4 (11747438_a_at) / RFU KRT8 (11758183_x_at) / Fold change /veh KRT8 (11758183_x_at) / RFU CNN1 (11734310_a_at) / Fold change /veh CNN1 (11734310_a_at) / RFU VPS37D (11726825_at) / Fold change /veh VPS37D (11726825_at) / RFU C10orf10 (11716522_x_at) / Fold change /veh C10orf10 (11716522_x_at) / RFU KIR2DL2 /// KIR2DL4 /// KIR2DL5A /// KIR2DL5B /// KIR2DS1 /// KIR2DS2 /// KIR2DS3 /// KIR2DS4 /// KIR3DL3 /// KIR3DL3 /// KIR3DS1 (11738374_at) / Fold change /veh KIR2DL2 /// KIR2DL4 /// KIR2DL5A /// KIR2DL5B /// KIR2DS1 /// KIR2DS2 /// KIR2DS3 /// KIR2DS4 /// KIR3DL3 /// KIR3DL3 /// KIR3DS1 (11738374_at) / RFU C1QL1 (11718748_at) / Fold change /veh C1QL1 (11718748_at) / RFU TMPRSS4 (11747572_a_at) / Fold change /veh TMPRSS4 (11747572_a_at) / RFU HAMP (11756126_x_at) / Fold change /veh HAMP (11756126_x_at) / RFU RNFT2 (11725882_a_at) / Fold change /veh RNFT2 (11725882_a_at) / RFU NR4A2 (11747474_a_at) / Fold change /veh NR4A2 (11747474_a_at) / RFU ABCC12 (11746883_a_at) / Fold change /veh ABCC12 (11746883_a_at) / RFU TMEM136 (11760407_x_at) / Fold change /veh TMEM136 (11760407_x_at) / RFU CLDN22 /// WWC2 (11732394_at) / Fold change /veh CLDN22 /// WWC2 (11732394_at) / RFU HLA-DPB1 (11760878_x_at) / Fold change /veh HLA-DPB1 (11760878_x_at) / RFU SPINT1 (11716480_a_at) / Fold change /veh SPINT1 (11716480_a_at) / RFU GAP43 (11754022_s_at) / Fold change /veh GAP43 (11754022_s_at) / RFU A4GNT (11735810_at) / Fold change /veh A4GNT (11735810_at) / RFU PRB3 (11715151_x_at) / Fold change /veh PRB3 (11715151_x_at) / RFU TUBB4B (11761932_at) / Fold change /veh TUBB4B (11761932_at) / RFU CAPN14 (11732068_a_at) / Fold change /veh CAPN14 (11732068_a_at) / RFU TMCC2 (11721928_a_at) / Fold change /veh TMCC2 (11721928_a_at) / RFU IRGQ (11745062_a_at) / Fold change /veh IRGQ (11745062_a_at) / RFU FAM174B (11720279_a_at) / Fold change /veh FAM174B (11720279_a_at) / RFU TMPRSS4 (11748680_a_at) / Fold change /veh TMPRSS4 (11748680_a_at) / RFU FAM212B (11763350_a_at) / Fold change /veh FAM212B (11763350_a_at) / RFU PLEKHG5 (11743358_a_at) / Fold change /veh PLEKHG5 (11743358_a_at) / RFU ZSCAN30 (11745921_a_at) / Fold change /veh ZSCAN30 (11745921_a_at) / RFU CMKLR1 (11741424_a_at) / Fold change /veh CMKLR1 (11741424_a_at) / RFU LOC101060620 /// MAPK8IP1 (11723275_at) / Fold change /veh LOC101060620 /// MAPK8IP1 (11723275_at) / RFU SPTSSB (11747773_x_at) / Fold change /veh SPTSSB (11747773_x_at) / RFU PRSS12 (11739890_at) / Fold change /veh PRSS12 (11739890_at) / RFU BIN1 (11741810_x_at) / Fold change /veh BIN1 (11741810_x_at) / RFU WNT11 (11732464_a_at) / Fold change /veh WNT11 (11732464_a_at) / RFU C10orf10 (11716521_a_at) / Fold change /veh C10orf10 (11716521_a_at) / RFU C5orf56 (11738089_at) / Fold change /veh C5orf56 (11738089_at) / RFU CYB561 (11721691_x_at) / Fold change /veh CYB561 (11721691_x_at) / RFU ANKRD19P (11752326_a_at) / Fold change /veh ANKRD19P (11752326_a_at) / RFU OR2T12 /// OR2T33 /// OR2T8 (11738714_s_at) / Fold change /veh OR2T12 /// OR2T33 /// OR2T8 (11738714_s_at) / RFU VCAN (11748164_a_at) / Fold change /veh VCAN (11748164_a_at) / RFU JSRP1 (11732532_at) / Fold change /veh JSRP1 (11732532_at) / RFU KRTAP10-11 (11738290_x_at) / Fold change /veh KRTAP10-11 (11738290_x_at) / RFU MYO3A (11730013_a_at) / Fold change /veh MYO3A (11730013_a_at) / RFU EBF3 (11725865_a_at) / Fold change /veh EBF3 (11725865_a_at) / RFU CAMK2N1 (11719241_x_at) / Fold change /veh CAMK2N1 (11719241_x_at) / RFU C5orf56 (11738088_a_at) / Fold change /veh C5orf56 (11738088_a_at) / RFU OLFML3 (11715873_a_at) / Fold change /veh OLFML3 (11715873_a_at) / RFU LOC100653217 /// NTM (11731650_a_at) / Fold change /veh LOC100653217 /// NTM (11731650_a_at) / RFU MAPK11 (11762145_a_at) / Fold change /veh MAPK11 (11762145_a_at) / RFU FIZ1 (11724087_x_at) / Fold change /veh FIZ1 (11724087_x_at) / RFU OASL (11726364_x_at) / Fold change /veh OASL (11726364_x_at) / RFU SOX15 (11748057_x_at) / Fold change /veh SOX15 (11748057_x_at) / RFU CD79A (11719716_a_at) / Fold change /veh CD79A (11719716_a_at) / RFU HIST1H1D (11736915_at) / Fold change /veh HIST1H1D (11736915_at) / RFU CASKIN2 (11723855_a_at) / Fold change /veh CASKIN2 (11723855_a_at) / RFU LOC730098 (11760151_x_at) / Fold change /veh LOC730098 (11760151_x_at) / RFU OR4N2 (11742367_at) / Fold change /veh OR4N2 (11742367_at) / RFU PRRT2 (11749266_a_at) / Fold change /veh PRRT2 (11749266_a_at) / RFU SNX32 (11753110_a_at) / Fold change /veh SNX32 (11753110_a_at) / RFU CDHR5 (11726645_a_at) / Fold change /veh CDHR5 (11726645_a_at) / RFU RCAN1 (11760418_a_at) / Fold change /veh RCAN1 (11760418_a_at) / RFU FAM167A (11723789_a_at) / Fold change /veh FAM167A (11723789_a_at) / RFU FAM26E (11764081_at) / Fold change /veh FAM26E (11764081_at) / RFU ISYNA1 (11749810_s_at) / Fold change /veh ISYNA1 (11749810_s_at) / RFU ACY1 (11761880_at) / Fold change /veh ACY1 (11761880_at) / RFU 11764098_at / Fold change /veh 11764098_at / RFU SAMD14 (11745864_x_at) / Fold change /veh SAMD14 (11745864_x_at) / RFU NPB (11741838_a_at) / Fold change /veh NPB (11741838_a_at) / RFU TMPRSS6 (11731388_a_at) / Fold change /veh TMPRSS6 (11731388_a_at) / RFU KRTAP10-2 (11738614_at) / Fold change /veh KRTAP10-2 (11738614_at) / RFU ARHGAP8 /// PRR5-ARHGAP8 (11727945_x_at) / Fold change /veh ARHGAP8 /// PRR5-ARHGAP8 (11727945_x_at) / RFU KRTAP5-7 /// NADSYN1 (11734609_at) / Fold change /veh KRTAP5-7 /// NADSYN1 (11734609_at) / RFU RASL12 (11751679_a_at) / Fold change /veh RASL12 (11751679_a_at) / RFU CDKN2B (11736163_a_at) / Fold change /veh CDKN2B (11736163_a_at) / RFU PRF1 (11729649_at) / Fold change /veh PRF1 (11729649_at) / RFU, ZNF638 /// ZNF638-IT1 / Fold change vs veh, ZNF638 /// ZNF638-IT1 / RFU, PANK3 / Fold change vs veh, PANK3 / RFU, SH3YL1 / Fold change vs veh, SH3YL1 / RFU, ZEB2 / Fold change vs veh, ZEB2 / RFU, NRIP1 / Fold change vs veh, NRIP1 / RFU, PTTG1IP / Fold change vs veh, PTTG1IP / RFU, CAPN2 / Fold change vs veh, CAPN2 / RFU, MED14 / Fold change vs veh, MED14 / RFU, SNORA58 / Fold change vs veh, SNORA58 / RFU, C1orf63 / Fold change vs veh, C1orf63 / RFU, LRRFIP1 / Fold change vs veh, LRRFIP1 / RFU, NDUFAF7 / Fold change vs veh, NDUFAF7 / RFU, SLC12A2 / Fold change vs veh, SLC12A2 / RFU, IBTK / Fold change vs veh, IBTK / RFU, ESF1 / Fold change vs veh, ESF1 / Fold change vs veh, TMEM50B / RFU, TAOK1 / Fold change vs veh, TAOK1 / RFU, ACBD3 / Fold change vs veh, ACBD3 / RFU, TMA16 / Fold change vs veh, TMA16 / RFU, RWDD3 / Fold change vs veh, RWDD3 / RFU, BCAT1 / Fold change vs veh, BCAT1 / RFU, EDEM3 / Fold change vs veh, EDEM3 / RFU, TMEM33 / Fold change vs veh, TMEM33 / RFU, WDR75 / Fold change vs veh, WDR75 / RFU, AHCTF1 / Fold change vs veh, AHCTF1 / RFU, TFRC / Fold change vs veh, TFRC / RFU, ZDHHC17 / Fold change vs veh, ZDHHC17 / RFU, NOM1 / Fold change vs veh, NOM1 / RFU, ARL8B / Fold change vs veh, ARL8B / RFU, ZBTB11 / Fold change vs veh, ZBTB11 / RFU, TAMM41 / Fold change vs veh, TAMM41 / RFU, KIAA1704 /// LOC100996395 / Fold change vs veh, KIAA1704 /// LOC100996395 / RFU, ING1 / Fold change vs veh, ING1 / RFU, TRMT61B / Fold change vs veh, TRMT61B / RFU, FUBP3 / Fold change vs veh, FUBP3 / RFU, TP53 / Fold change vs veh, TP53 / RFU, TNKS2 / Fold change vs veh, TNKS2 / RFU, ZFP14 / Fold change vs veh, ZFP14 / RFU, ACTR2 / Fold change vs veh, ACTR2 / RFU, PPP3R1 / Fold change vs veh, PPP3R1 / RFU, PIK3R1 / Fold change vs veh, PIK3R1 / RFU, HNRNPA1 / Fold change vs veh, HNRNPA1 / RFU, RNF170 / Fold change vs veh, RNF170 / RFU, ZNF28 / Fold change vs veh, ZNF28 / RFU, RNGTT / Fold change vs veh, RNGTT / RFU, OGT / Fold change vs veh, OGT / RFU, BRD1 / Fold change vs veh, BRD1 / RFU, MARS / Fold change vs veh, MARS / RFU, ZNF655 / Fold change vs veh, ZNF655 / RFU, FAHD1 / Fold change vs veh, FAHD1 / RFU, BDP1 / Fold change vs veh, BDP1 / RFU, LRRCC1 / Fold change vs veh, LRRCC1 / RFU, ARID1A / Fold change vs veh, ARID1A / RFU, ZNF146 / Fold change vs veh, ZNF146 / RFU, ZNF330 / Fold change vs veh, ZNF330 / RFU, GPN3 / Fold change vs veh, GPN3 / RFU, C9orf123 / Fold change vs veh, C9orf123 / RFU, N4BP2L2 / Fold change vs veh, N4BP2L2 / RFU, ARFIP1 / Fold change vs veh, ARFIP1 / RFU, FAM179B / Fold change vs veh, FAM179B / RFU, BCL10 / Fold change vs veh, BCL10 / RFU, UHRF1BP1L / Fold change vs veh, UHRF1BP1L / RFU, BET1 / Fold change vs veh, BET1 / RFU, CNOT2 / Fold change vs veh, CNOT2 / RFU, ZNF268 / Fold change vs veh, ZNF268 / Fold change vs veh, ZNF507 / RFU, DGCR2 / Fold change vs veh, DGCR2 / RFU, WDSUB1 / Fold change vs veh, WDSUB1 / Fold change vs veh, HSP90B1 /// MIR3652 / RFU, ADSS / Fold change vs veh, ADSS / RFU, GK / Fold change vs veh, GK / RFU, ZNF148 / Fold change vs veh, ZNF148 / RFU, TAF9 / Fold change vs veh, TAF9 / RFU, SLC1A5 / Fold change vs veh, SLC1A5 / RFU, SLMO2 / Fold change vs veh, SLMO2 / RFU, ABCC4 / Fold change vs veh, ABCC4 / RFU, LOC101060439 /// RAP1B / Fold change vs veh, LOC101060439 /// RAP1B / RFU, RFX7 / Fold change vs veh, RFX7 / RFU, GTPBP10 / Fold change vs veh, GTPBP10 / RFU, CNEP1R1 / Fold change vs veh, CNEP1R1 / RFU, BIVM-ERCC5 /// ERCC5 / Fold change vs veh, BIVM-ERCC5 /// ERCC5 / RFU, ILF3 / Fold change vs veh, ILF3 / RFU 11762660_at / Fold change /veh 11762660_at / RFU VCAN (11757783_s_at) / Fold change /veh VCAN (11757783_s_at) / RFU DDX43 (11728927_at) / Fold change /veh DDX43 (11728927_at) / RFU KRT8 (11758188_x_at) / Fold change /veh KRT8 (11758188_x_at) / RFU NKD1 (11759106_at) / Fold change /veh NKD1 (11759106_at) / RFU SRD5A1 (11742802_a_at) / Fold change /veh SRD5A1 (11742802_a_at) / RFU TPSAB1 /// TPSB2 (11721975_s_at) / Fold change /veh TPSAB1 /// TPSB2 (11721975_s_at) / RFU GSTM3 (11746129_a_at) / Fold change /veh GSTM3 (11746129_a_at) / RFU IL23R (11737362_x_at) / Fold change /veh IL23R (11737362_x_at) / RFU TMEM51 (11727254_a_at) / Fold change /veh TMEM51 (11727254_a_at) / RFU PIWIL2 (11732686_x_at) / Fold change /veh PIWIL2 (11732686_x_at) / RFU ORM1 (11744905_x_at) / Fold change /veh ORM1 (11744905_x_at) / RFU CCDC152 (11743942_at) / Fold change /veh CCDC152 (11743942_at) / RFU ECM1 (11717891_a_at) / Fold change /veh ECM1 (11717891_a_at) / RFU IL23R (11748794_a_at) / Fold change /veh IL23R (11748794_a_at) / RFU TNFAIP8L3 (11732012_x_at) / Fold change /veh TNFAIP8L3 (11732012_x_at) / RFU MBOAT4 (11741988_at) / Fold change /veh MBOAT4 (11741988_at) / RFU 11764193_at / Fold change /veh 11764193_at / RFU TMEM53 (11763286_at) / Fold change /veh TMEM53 (11763286_at) / RFU MAGEB2 (11727129_at) / Fold change /veh MAGEB2 (11727129_at) / RFU TMEM200A (11744735_a_at) / Fold change /veh TMEM200A (11744735_a_at) / RFU CCDC152 (11751479_a_at) / Fold change /veh CCDC152 (11751479_a_at) / RFU FAM211A (11726209_a_at) / Fold change /veh FAM211A (11726209_a_at) / RFU RGS16 (11746705_a_at) / Fold change /veh RGS16 (11746705_a_at) / RFU VCAN (11755009_s_at) / Fold change /veh VCAN (11755009_s_at) / RFU RHOB (11743442_s_at) / Fold change /veh RHOB (11743442_s_at) / RFU RGS16 (11720943_a_at) / Fold change /veh RGS16 (11720943_a_at) / RFU RGS16 (11720944_at) / Fold change /veh RGS16 (11720944_at) / RFU, VPS4B / Fold change vs veh, VPS4B / RFU, CREB1 / Fold change vs veh, CREB1 / RFU, DNAJC13 / Fold change vs veh, DNAJC13 / RFU, GNAQ / Fold change vs veh, GNAQ / RFU, CDK5R1 / Fold change vs veh, CDK5R1 / RFU, ZRANB3 / Fold change vs veh, ZRANB3 / RFU, CUL4A / Fold change vs veh, CUL4A / RFU, CCNY / Fold change vs veh, CCNY / RFU, UFL1 / Fold change vs veh, UFL1 / RFU, COG3 / Fold change vs veh, COG3 / RFU, DIAPH2 / Fold change vs veh, DIAPH2 / RFU, SKA2 / Fold change vs veh, SKA2 / RFU, AFF3 / Fold change vs veh, AFF3 / RFU, LMF1 / Fold change vs veh, LMF1 / RFU, IPO11 / Fold change vs veh, IPO11 / RFU, DFFB / Fold change vs veh, DFFB / RFU, FOXP1 / Fold change vs veh, FOXP1 / RFU, CARD8 / Fold change vs veh, CARD8 / RFU, STRN3 / Fold change vs veh, STRN3 / RFU, ADK / Fold change vs veh, ADK / RFU, RASSF2 / Fold change vs veh, RASSF2 / RFU, WIPF1 / Fold change vs veh, WIPF1 / RFU, LARP1B / Fold change vs veh, LARP1B / RFU, RASA1 / Fold change vs veh, RASA1 / RFU, RB1 / Fold change vs veh, RB1 / RFU, PPFIA1 / Fold change vs veh, PPFIA1 / RFU, MAT2A / Fold change vs veh, MAT2A / RFU, CCT5 / Fold change vs veh, CCT5 / RFU, WDR92 / Fold change vs veh, WDR92 / RFU, CUX1 / Fold change vs veh, CUX1 / RFU, TTC7A / Fold change vs veh, TTC7A / RFU, TMEM135 / Fold change vs veh, TMEM135 / RFU, DEPTOR / Fold change vs veh, DEPTOR / RFU, CPM / Fold change vs veh, CPM / RFU, DNAJB6 / Fold change vs veh, DNAJB6 / RFU, CACNA2D3 / Fold change vs veh, CACNA2D3 / RFU, DTX4 / Fold change vs veh, DTX4 / RFU, TFCP2 / Fold change vs veh, TFCP2 / RFU, GMCL1 /// GMCL1P1 / Fold change vs veh, GMCL1 /// GMCL1P1 / RFU, AEBP2 / Fold change vs veh, AEBP2 / RFU, SNHG1 /// SNORD22 /// SNORD25 /// SNORD26 /// SNORD27 /// SNORD28 /// SNORD29 /// SNORD31 / Fold change vs veh, SNHG1 /// SNORD22 /// SNORD25 /// SNORD26 /// SNORD27 /// SNORD28 /// SNORD29 /// SNORD31 / Fold change (Aza/veh), C12orf56 (ProbeSet 11735607_a_at) / Fold change (ACY-1035/veh), C12orf56 (ProbeSet 11735607_a_at) / Fold change (Aza/veh), FGFR1OP (ProbeSet 11751329_s_at) / Fold change (ACY-1035/veh), FGFR1OP (ProbeSet 11751329_s_at) / Fold change (Aza/veh), VPS36 (ProbeSet 11739960_a_at) / Fold change (ACY-1035/veh), VPS36 (ProbeSet 11739960_a_at) / RFU SYPL1 (11715823_x_at) / Fold change /veh SYPL1 (11715823_x_at) / RFU IGFBP7 (11715501_s_at) / Fold change /veh IGFBP7 (11715501_s_at) / RFU REEP3 (11722064_at) / Fold change /veh REEP3 (11722064_at) / RFU IGLL1 (11728026_x_at) / Fold change /veh IGLL1 (11728026_x_at): dose or concentration left out as unconfirmed
Settings: MV-4-11 cells, 48 hours

Nc1ccc(-c2cccs2)cc1NC(=O)c1ccc2c(c1)cc(C1CC1)n2CCN1CCOCC1 [ACY-1035]
Fold change /veh ABCC12 (11746883_a_at): 1.17
